Experiment [1] deals with pancreatic cancer cells (Capan-1). Put plainly: Drug combination with olaparib, Combination Index by Chou-Talalay method (CompuSyn). Particulars: CI<0.9 denotes synergism. The class given is cell-based, human. The protocol: The experiment was conducted in triplicates.
Experiment [2] deals with Liv7k cell line (oral cancer). Briefly: Drug repurposing screen: growth inhibition of oral cancer cell line under normoxia and hypoxia (nuclei count). The class given is cell-based. Particulars: Homo sapiens; for inhibition at 10 µM: 72 h, read-out: Growth Inhibition (GI). The protocol: HPV-negative cell line derived from a T3N2b primary tumor of the tongue. The patient received no chemo/radiotherapy prior to tumor excision. Generously gifted by Professor Richard Shaw (Head and Neck Cancer Consultant, Liverpool, UK). Cells are maintained in keratinocyte SFM (Life Technologies), supplemented with 2 mM L-glutamine, 0.2 ng/ml epidermal growth factor (EGF) and 25 μg/ml bovine pituitary extract (BPE). The cell line was tested from mycoplasma contamination and authenticated by exome sequencing and CNV.
1397 compounds from the NIH Clinical Collection (Evotec, San Francisco, Calif.), LOPAC Pfizer (Sigma Aldrich), the Developmental Therapeutics Program (DTP)-Approved Oncology library and the FDA-Approved Drug Library (Selleck Chemicals) were tested at a single concentration of 10 μM. The libraries were received as 10 mM compounds in dimethyl sulfoxide (DMSO). Plates which conflicted with our plate layout were reformatted. The compounds were first diluted 1:50 in serum free media, and then further diluted 1:20 into to 96 well plates containing 5000 cells in 190 μl of keratinocyte SFM supplemented with 2 mM L-glutamine, 0.2 ng/ml EGF and 25 μg/ml BPE. 0.1% DMSO was used as a negative control, and staurosporine (Sigma Aldrich) at a concentration of 1 μM was used as a positive death control in all plates. Each drug was tested for 72 h under 21% and 0.1% O2. The cells were fixed using 4% formaldehyde after 72 h, and stained with DAPI dilactate (Sigma Aldrich). To assess viability, stained nuclei were counted using Perkin Elmer Operetta High Content Microscope.
An experimental screen was designed for testing whether the clinical SL-network can discriminate between cytotoxic and non-cytotoxic drugs, when considering a wide range of oncology and non-oncology drugs. Transcriptomic profiles of an oral cancer cell line under normoxia and hypoxia were obtained. Based on these profiles the network predicted the cell line response to 139 oncology and 531 non-oncology drugs in each condition. […]

Where two headings read alike, the source gives them in different places.

On to `COc1cc([C@@H]2c3cc4c(cc3[C@@H](O[C@@H]3O[C@@H]5CO[C@@H](C)O[C@H]5[C@H](O)[C@H]3O)[C@H]3COC(=O)[C@H]23)OCO4)cc(OC)c1O` [Etoposide (VP16), etoposide], for which the “median Combination Index (CI)” value in experiment [1] amounted to 0.718.
Take `O=C(CCCCCCC(=O)Nc1ccccc1)NO` [VORINOSTAT, vorinostat]: the “median Combination Index (CI)” value in experiment [1] was 0.551.
One may read the inhibition as the relative decrease from the control value, in per cent. Usually IC50 stands for the concentration at which inhibition is half-maximal. A higher IC50 goes with a need for much substance. Consider `CN(C/C=C/C#CC(C)(C)C)Cc1cccc2ccccc12` [terbinafine], for which the figures for the inhibition at 10 µM in experiment [2] (hypoxia (0.1% O2)) and in experiment [2] (normoxia (21% O2)) were 45.2% and 81.9%, respectively. Moreover, in experiment [2] (normoxia), half-maximal inhibition (IC50) was put at 5.8 µM.

The values are drawn from patent publication US20170154163A1, “CLINICALLY RELEVANT SYNTHETIC LETHALITY BASED METHOD AND SYSTEM FOR CANCER PROGNOSIS AND THERAPY” (Ramot at Tel-Aviv University Ltd., priority 2015, published 2017).
